How the values were obtained:
[1] = target: T1, U46619 stimulated platelet aggregation (Homo sapiens, UniProt P21731); assay: blood platelet aggregation test (procedure (b)), U46619 stimulated aggregation of human citrated platelet-rich plasma; format: cell-based; details: U46619, averaged over several concentrations
T1 construct: human, citrated platelet-rich plasma; endogenous in cells; host or cells: human platelets in citrated platelet-rich plasma
T1 sequence (P21731 1-343): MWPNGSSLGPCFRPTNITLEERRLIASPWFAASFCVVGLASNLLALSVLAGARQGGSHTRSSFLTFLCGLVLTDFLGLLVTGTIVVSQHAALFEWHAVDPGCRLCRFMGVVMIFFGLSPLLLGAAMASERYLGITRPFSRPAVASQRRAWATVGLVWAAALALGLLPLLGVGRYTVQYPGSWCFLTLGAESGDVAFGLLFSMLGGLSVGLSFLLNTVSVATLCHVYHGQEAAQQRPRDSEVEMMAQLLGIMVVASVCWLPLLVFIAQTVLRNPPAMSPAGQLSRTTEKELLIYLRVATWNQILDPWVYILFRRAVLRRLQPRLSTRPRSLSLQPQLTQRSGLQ
From the text: (b) a blood platelet aggregation test based on that described by Born (Nature, 1962, 194, 927-929) and involving:
(i) aggregating human, citrated platelet-rich plasma by addition of the TXA2 mimetic agent U46619 so that a dose-response curve is generated;
(ii) generating a dose-response curve for U46619 stimulated platelet aggregation in the presence of increasing amounts of test compound (generally in the range, 10^-5 M to 10^-10 M); and
(iii) calculating a KB value indicating potency of TXA2 antagonism for the test compound, averaged over several concentrations, from the calculated 50% response value for U46619 aggregation in the presence and absence of test compound; and […]

rat aortal strip = target: T2, rat aortal strip (Rattus norvegicus, UniProt P34978); assay: rat aortal strip model (procedure (a)), agonist U46619; format: cell-based; details: read-out: pA2 (converted)
T2 construct: rat aortal strip model; from tissue; host or cells: rat aorta strip
T2 sequence (P34978 1-341): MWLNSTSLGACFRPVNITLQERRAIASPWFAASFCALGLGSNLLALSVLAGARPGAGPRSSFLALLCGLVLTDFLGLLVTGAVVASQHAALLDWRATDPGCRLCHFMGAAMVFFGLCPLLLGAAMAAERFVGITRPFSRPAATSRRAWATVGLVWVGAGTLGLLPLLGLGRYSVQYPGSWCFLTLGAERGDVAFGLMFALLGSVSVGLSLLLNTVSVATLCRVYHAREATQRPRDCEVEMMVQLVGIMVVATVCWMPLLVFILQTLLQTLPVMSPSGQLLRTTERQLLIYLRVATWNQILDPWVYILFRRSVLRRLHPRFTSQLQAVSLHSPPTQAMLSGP
From the text: As stated earlier, the compounds of formula I are antagonists of one or more of the actions of TXA2, for example certain of its actions on blood platelets, the vasculature and/or the lung.
(a) The rabbit aortal strip model devised by Piper and Vane (Nature, 1969, 223, 29-35) or the rat aortal strip model developed by Kennedy et alia (Prostaglandins, 1982, 24, 667-689), using as agonist the TXA2 mimtic agent known as U46619 (described by R. L. Jones et alia, in "Chemistry, Biochemistry and Pharmacological Activity of Prostanoids" edited by S. M. Roberts and F. Scheinmann, at page 211, Pergamon Press, 1979);

CC(C)(Oc1ccccc1)[C@@H]1OC[C@H](C/C=C\CCC(=O)O)[C@H](c2ccccc2O)O1 (relative stereo) [Example 6, 4(Z)-6-([2,4,5-cis]-2-[1-methyl-1-phenoxyethyl]-4-o-hydroxyphenyl-1,3-dioxan-5-yl)hexenoic acid]
Kb [1]: 17.5 nM | Kb (rat aortal strip): 0.195 nM
